This note sets out measurements from US5416090A, “Method of treating inflammation” (priority 1992, dated 1995).

The structures appear in SMILES notation.

The subject of test [1] is 5-HT induced paw swelling. Briefly: Serotonin (5-HT) induced acute paw inflammation. Format: in vivo, rat (Lewis). The protocol: (§1) In one such model, the acute paw inflammation model, rats were treated with test compounds one hour prior to plantar injection of a 50 μl volume of a phlogistic. Animals were sacrificed and paw weights were determined at a prescribed time interval following the plantar injections. When 1% carrageenan was used as the phlogistic, the time interval between injection and sacrifice was 3 hours. When serotonin (5-hydroxytryptamine (5-HT)) was used, as the phlogistic agent the time interval was one hour. When substance P was used, the time interval was 30 minutes. The acute paw inflammation model is described in more detail in Example 3.
(§2) Male Lewis rats (Charles River or Harlan Sprague Dawley) weighing 180 to 250 g were used in all acute inflammatory studies. Animals were maintained on a 12:12 hour light:dark cycle and were allowed ad lib access for food (Purina lab chow) and water. Experimental groups consisted of 5 or 6 rats.
Acute paw swelling was induced by the intraplantar injection of phlogistic agents into the left hind paw, with the uninjected right hind paw serving as the comparative control. One hour after dosing with test compound, 50 μl of serotonin (Sigma; 0.005 to 0.2 mg/ml in normal saline) or substance P (Sigma; 0.01 or 0.05 mg/ml in 10% thiorphan in normal saline) or carrageenan (Marine Colloidal or Sigma Type IV; 1% in normal saline) were injected under the skin of the left hind paw, while the animal was restrained in a plastic cone. Negative controls were given 50 μl intradermal injections of normal saline (serotonin or carrageenan assays) or 10% thiorphan (substance P assays) into the left hind paw. One hour following injection of serotonin, or 30 minutes following injection of substance P, or 180 minutes following injection of carrageenan, the animals were sacrificed by CO2 asphyxiation. The right and left hind paws were cut just proximal to the tibiotarsal joint and weighed. The difference in weight between an individual animal's left and right paws were used as an indicator of tissue swelling.
As indicated above, test compounds are administered as a one hour pretreatment. In one series of experiments, 24 hour and 48 hour drug pretreatment periods were used. Test compounds were dosed intraperitoneally as a suspension in 1% carboxymethylcellulose.

For test [2], the system named is substance P induced paw swelling. Briefly: Substance P induced acute paw inflammation. The test is classed as in vivo, rat (Lewis). Conditions: pre-treated with 3 mg/kg. The protocol: as §1, §2
Acute paw swelling was induced by the intraplantar injection of phlogistic agents into the left hind paw, with the uninjected right hind paw serving as the comparative control. […]

For test [3], the system named is carrageenan induced paw swelling. Briefly: Carrageenan edema model (acute paw inflammation). The test is classed as in vivo, rat (Lewis). Conditions: Rattus norvegicus, ip; read-out: ED50, inhibition of carrageenan induced paw swelling. (Carrageenan injected into the paw causes an acute inflammation.)
The test system of the next test is corticosterone. Briefly: Serum/plasma corticosterone levels in mice. The test is classed as in vivo, mouse (Balb/C). Conditions: FIG. 10 Panel A; 1 and 3 hr. following injection. From the text:
Dopamine agonists are known to elevate circulating glucocorticoid levels, via activation of the hypothalamo-pituitary-adrenal axis. […] Since glucocorticoids are potential endogenous anti-inflammatory substances, this action is one potential mechanism for the anti-inflammatory effect of the ergolines. However, in subsequent inflammation studies, the anti-inflammatory effects of D-1-isopropyl-6-n-propyl-8β-methylthiomethyl ergoline were retained in mice lacking an adrenal gland and therefore devoid of the increase in circulating corticosterone. (FIG. 10B)
(§3) Both Balb/C mice (male, approximately 20 g, Charles Rivers) and Lewis rats (male, approximately 200 g, Charles River or Harlan Sprague Dawley) were used in neuroendocrine studies. Animals were maintained on a 12:12 hour light:dark cycle and were allowed ad lib access for food (Purina lab chow) and water. Experimental groups consisted of 6 to 8 animals.
After dosing with test compounds, animals were sacrificed by decapitation at 1, 3, 8 or 24 hour intervals. Trunk blood was collected, allowed to clot and serum obtained after centrifugation (3000 rpm for 15 min.). Serum was aliquoted and stored at -70° C. for subsequent radioimmunoassays. Serum prolactin was determined by radioimmunoassay. Serum corticosterone levels were determined with a kit designed for such determinations and obtained from ICN.

For a further test, the system named is serum prolactin. As to the kind of experiment: Serum prolactin levels in mice, time course. Format: in vivo, mouse (Balb/C). The protocol:
A further mechanistic study wherein rat serum prolactin levels were quantitated 1 hour post-treatment with varying doses of D-1-isopropyl-6-n-propyl-8β-methylthiomethyl ergoline is summarized in FIG. 11. […] A time course/dose response study of D-1-isopropyl-6-n-propyl-8β-methylthio-methyl ergoline effects on murine serum prolactin levels is presented in FIG. 12. […] There is however a disparity between the suppression of prolactin and anti-inflammatory activities of the ergolines with regard to the dose response profiles. Serum prolactin levels are much more sensitive to D-1-isopropyl-6-n-propyl-8β-methylthiomethyl ergoline (maximal suppression ~≤0.1 mg/kg) than are the anti-inflammatory effects 3-10 mg/kg, See FIG. 5).
as §3
After dosing with test compounds, animals were sacrificed by decapitation at 1, 3, 8 or 24 hour intervals. […] Serum prolactin was determined by radioimmunoassay. Serum corticosterone levels were determined with a kit designed for such determinations and obtained from ICN.

Test [4] concerns dopamine receptor (DTH response). Briefly: Reversal of DTH inhibition by dopamine receptor antagonists. Format: in vivo, mouse. Particulars: FIG. 9 Panels B, C legend; pretreated with domperidone or sulpiride. The protocol:
Male Balb/c mice (Charles River) weighing 20 to 25 g were used in all DTH studies. When adrenalectomized studies were carried out, sham surgery and adrenalectomized mice were obtained from the vendor. Animals were maintained on a 12:12 hour light:dark cycle. Mice were allowed ad lib access for food (Purina lab chow) and water (normal saline for adrenalectomized animals).
A DTH response was assessed by measuring the degree of rear foot pad swelling induced by picryl chloride. On day 0, mice were sensitized with 100 μl of 5% picryl chloride (in ethanol), which was applied to a shaved abdomen. Negative control groups were shaved but not sensitized. On day 3, mice were anesthetized with methoxyflurane, and the baseline rear foot pad thickness was measured with a micrometer (Mitutoyo) in μ, and was recorded in duplicate. Fifty μl of picryl chloride was then applied to each pad with a pipet (Rainen) while the animal was unconscious. The negative controls also received picryl chloride at this point to control for primary irritancy. Twenty-four hours later, the mice were sacrificed by CO2 asphyxiation and each rear foot pad was again measured in duplicate, and any evidence of foot pad swelling was calculated. The mean rear foot swelling change of both pads for each animal from days 3 to 4 was used as the index of immune function in the DTH assay.
Unless otherwise stated all animals were given four subcutaneous doses of test compound just prior to picryl chloride sensitization on day 0, on day 1 and day 2, and just prior to picryl chloride challenge on day 3. In a few experiments, compounds were administered via oral or intraperitoneal routes. All drugs were delivered as suspensions in 1% carboxy-methylcellulose (also contained 0.8% NaCl, 1% polysorbate-80, 1.4% benzyl alcohol). Carboxymethyl-cellulose (1%) was used in control injections.

As a reminder, the ED50 is the dose that gives a 50% effect, or the effect in half of the subjects. For `CCCN1C[C@H](CSC)C[C@@H]2c3cccc4c3c(cn4C(C)C)C[C@H]21` [Compound 1, D-1-isopropyl-6-n-propyl-8β-methylthiomethyl ergoline], the “reduction in paw swelling” value in test [1] (3 mg/kg dosed 24 hours prior to phlogistic challenge) and in test [1] (3 mg/kg dosed 48 hours prior to phlogistic challenge) was “significant reduction in paw swelling” in each case. Further, the “effect on 5-HT induced paw swelling” value in test [1] (FIG. 2) is given as “Inhibitory effect”. In test [1] (FIG. 3), the “duration of anti-inflammatory effect” value is recorded as “longlasting”. In addition, in test [1] (FIG. 3, serotonin 0.2 mg/kg, 1, 24 and 48 hour following a single injection), the “inhibition of serotonin induced paw swelling” value is given as “Inhibition”. The minimal effective dose in test [1] (Rattus norvegicus, ip, read-out: lowest stated dosage with a significant reduction in paw swelling) was determined as 0.1 mg/kg. For the same compound, in test [2] (Substance P 0.01 mg/ml, untreated 174 ±18 mg), the “increase in paw weight after substance P” value worked out at 38 ± 11 mg. The “reduction of substance P induced increase in paw weight” value in test [2] (p<0.05) stood at 49%. In addition, the ED50 in test [3] is around 0.3 mg/kg. Besides, the “effect on plasma corticosterone” value in the test on corticosterone is listed as “increase plasma cortiosterone”. For the same compound, in the test on serum prolactin (FIG. 12, single injection), the “duration of effect on serum prolactin” value was “particularly long lasting effects”. Also, the ED (maximal) in the test on serum prolactin (Mus musculus, compared with anti-inflammatory doses, read-out: dose for maximal suppression of serum prolactin) is at most 0.1 mg/kg. Also, the “reversal of DTH inhibition by antagonist pretreatment” value in test [4] is reported as “reversal of inhibition of the DTH”.
